Measurements from patent US20240182531A1, “KV1.3 Blockers” (priority 2021, published 2024).
Where a SMILES comes first, the peptide text is derived from it. Bridges are numbered along the chain shown (N, C = ends). [ ]: non-standard residue; d: D form. Agp = N=C(N)NC[C@H](N)C(=O)O; Nle = CCCC[C@H](N)C(=O)O; Dab = NCC[C@H](N)C(=O)O

Assays:
[1] = target: human Kv1.1 potassium ion channel (human) (UniProt Q09470); assay: cell-based or functional assay
[2] = target: human Kv1.2 potassium ion channel (human) (UniProt P16389); assay: cell-based or functional assay
[3] = target: human Kv1.3 (potassium voltage-gated channel subfamily A member 3) (human) (UniProt P22001); assay: cell-based or functional assay
[4] = target: human Kv1.6 potassium ion channel (human) (UniProt P17658); assay: cell-based or functional assay
[5] = target: T1, human Kv1.3 voltage-gated K+ channel (Homo sapiens, UniProt P22001); assay: Kv1.3 blocker activity in FLIPR thallium assay; type: cell-based
T1 construct: host or cells: CHO-DUKX
Procedure, shortened: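 CHO-DUKX cells stably expressing Kv1.3 were pre-incubated with compound for 30 min at 37° C in buffer with 0.02% w/v casein. Depolarization used final stimulus buffer with 5 mM K2SO4 and 1 mM Tl2SO4. Thallium-flux fluorescence was read at maximum response at 50 s, 37° C, and IC50 derived.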

[6] = Pharmacokinetic characterisation after single s.c. injection in Sprague Dawley rats; conditions: male, rat, plasma, sc, 100 nmol/kg
Method: Sprague Dawley (males with a body weight of approximately 250-350 g) were given a single subcutaneous (s.c.) injection of each peptide to be tested.
Following s.c. administration of the selected compounds (dose 100 nmol/kg, dosing volume either 2 mL/kg), blood samples were drawn at 5 min, 15 min, 30 min, 60 min, 2 h, 3 h, 4 h, 6 h, 8 h post-dose. At each sampling time point, samples from the rats were drawn by sublingual bleeding. After last sampling the rats were sacrificed by O2/CO2 anaesthesia. The dosing vehicle was 10 mM phosphate, 0.8% NaCl, 0.05% Polysorbate 20 (pH 6.0).
Plasma samples were analyzed after solid phase extraction (SPE) by liquid chromatography mass spectrometry (LC-MS/MS). Mean plasma concentrations were used for calculation of the pharmacokinetic parameters using the non-compartmental approach in Phoenix WinNonlin 6.4 or a later version. Plasma terminal elimination half-life (T½) was determined as In(2)/λz where λz is the magnitude of the slope of the log linear regression of the log concentration versus time profile during the terminal phase. AUCinf is the area under the plasma concentration—time curve extrapolated to infinity (AUCinf=AUClast+Clast/λz, where Clast is the last observed plasma concentration). Cmax is the maximum observed concentration, occurring at Tmax.

[7] = target: T2, human Kv1.1 (Homo sapiens, UniProt Q09470); assay: cell-based; conditions: for IC50: CHO cells, QPatch whole-cell, read-out: Potency IC50 Kv1.1; for Selectivity ratio Kv1.1/Kv1.3: ratio of patch clamp IC50 values
T2 construct: expressed in transfected cells; host or cells: CHO

[8] = target: T3, human Kv1.2 (Homo sapiens, UniProt P16389); assay: cell-based; conditions: for IC50: CHO cells, QPatch whole-cell, read-out: Potency IC50 Kv1.2; for Selectivity ratio Kv1.2/Kv1.3: ratio of patch clamp IC50 values
T3 construct: expressed in transfected cells; host or cells: CHO

[9] = target: T4, human Kv1.3 (Homo sapiens, UniProt P22001); assay: cell-based; conditions: CHO cells, QPatch whole-cell; read-out: Potency IC50 Kv1.3
T4 construct: expressed in transfected cells; host or cells: CHO

[10] = target: T5, human Kv1.6 (Homo sapiens, UniProt P17658); assay: cell-based; conditions: for IC50: CHO cells, QPatch whole-cell, read-out: Potency IC50 Kv1.6; for Selectivity ratio Kv1.6/Kv1.3: ratio of patch clamp IC50 values
T5 construct: expressed in transfected cells; host or cells: CHO

[11] = target: human Kv1.3 voltage-gated K+ channel (potassium voltage-gated channel subfamily A member 3) (human) (UniProt P22001); assay: cell-based or functional assay
[12] = Pharmacokinetic characterisation according to example 6 of PCT/EP2020/076187; conditions: in vivo; dose 70 nmol/kg
Method: The pharmacokinetic characterization of compound 14 were performed according to the method described in example 6 of international patent application PCT/EP2020/076187.

[13] = target: Rat whole blood (Rattus norvegicus, UniProt P15384); type: cell-based; conditions: IL-17A release, thapsigargin, 24 Hr, at least 2 replicates
Rat whole blood, sequence (P15384 whole entry): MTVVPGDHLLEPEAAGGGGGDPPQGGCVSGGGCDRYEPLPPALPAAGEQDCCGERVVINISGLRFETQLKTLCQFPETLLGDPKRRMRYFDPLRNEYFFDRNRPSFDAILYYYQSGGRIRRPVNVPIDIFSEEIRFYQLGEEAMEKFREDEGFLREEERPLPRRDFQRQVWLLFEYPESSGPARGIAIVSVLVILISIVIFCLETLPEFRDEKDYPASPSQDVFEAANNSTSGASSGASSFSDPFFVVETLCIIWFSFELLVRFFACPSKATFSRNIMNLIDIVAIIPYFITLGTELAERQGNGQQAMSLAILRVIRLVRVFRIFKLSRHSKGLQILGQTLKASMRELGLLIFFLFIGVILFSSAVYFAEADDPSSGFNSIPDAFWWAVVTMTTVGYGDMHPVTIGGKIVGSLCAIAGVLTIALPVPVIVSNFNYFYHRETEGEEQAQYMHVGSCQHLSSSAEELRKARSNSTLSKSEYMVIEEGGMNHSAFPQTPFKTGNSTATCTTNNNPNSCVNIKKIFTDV

human Kv1.2 potassium ion channel (human), sequence (P16389 whole entry): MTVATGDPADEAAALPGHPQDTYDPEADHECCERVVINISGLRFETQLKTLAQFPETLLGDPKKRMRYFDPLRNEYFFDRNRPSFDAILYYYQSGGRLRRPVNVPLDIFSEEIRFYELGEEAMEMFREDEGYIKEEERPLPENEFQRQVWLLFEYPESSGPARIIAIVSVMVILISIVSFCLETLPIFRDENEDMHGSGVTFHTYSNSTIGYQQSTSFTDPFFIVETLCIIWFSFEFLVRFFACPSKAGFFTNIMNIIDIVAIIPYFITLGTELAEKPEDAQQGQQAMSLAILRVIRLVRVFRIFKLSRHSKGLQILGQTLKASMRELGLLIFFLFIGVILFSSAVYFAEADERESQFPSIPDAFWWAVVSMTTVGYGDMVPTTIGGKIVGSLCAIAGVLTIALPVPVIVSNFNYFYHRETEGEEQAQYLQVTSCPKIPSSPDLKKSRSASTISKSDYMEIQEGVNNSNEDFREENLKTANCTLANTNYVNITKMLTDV
T3 sequence (P16389 whole entry): as above
human Kv1.3 (potassium voltage-gated channel subfamily A member 3) (human), sequence (P22001 whole entry): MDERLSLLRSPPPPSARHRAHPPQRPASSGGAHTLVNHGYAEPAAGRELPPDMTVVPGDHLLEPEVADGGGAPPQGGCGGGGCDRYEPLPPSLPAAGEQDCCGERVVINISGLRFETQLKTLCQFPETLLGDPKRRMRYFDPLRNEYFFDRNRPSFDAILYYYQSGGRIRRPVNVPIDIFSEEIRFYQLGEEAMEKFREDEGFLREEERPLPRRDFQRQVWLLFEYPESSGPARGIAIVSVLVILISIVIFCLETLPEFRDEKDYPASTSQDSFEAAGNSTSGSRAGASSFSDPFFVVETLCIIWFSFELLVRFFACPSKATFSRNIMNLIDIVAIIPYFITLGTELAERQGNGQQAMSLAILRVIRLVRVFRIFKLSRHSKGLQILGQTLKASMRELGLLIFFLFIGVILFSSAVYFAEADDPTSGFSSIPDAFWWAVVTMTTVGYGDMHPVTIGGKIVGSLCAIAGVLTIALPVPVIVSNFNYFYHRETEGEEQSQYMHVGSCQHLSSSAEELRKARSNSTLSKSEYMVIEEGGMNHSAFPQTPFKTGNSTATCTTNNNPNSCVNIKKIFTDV
T2 sequence (Q09470 whole entry): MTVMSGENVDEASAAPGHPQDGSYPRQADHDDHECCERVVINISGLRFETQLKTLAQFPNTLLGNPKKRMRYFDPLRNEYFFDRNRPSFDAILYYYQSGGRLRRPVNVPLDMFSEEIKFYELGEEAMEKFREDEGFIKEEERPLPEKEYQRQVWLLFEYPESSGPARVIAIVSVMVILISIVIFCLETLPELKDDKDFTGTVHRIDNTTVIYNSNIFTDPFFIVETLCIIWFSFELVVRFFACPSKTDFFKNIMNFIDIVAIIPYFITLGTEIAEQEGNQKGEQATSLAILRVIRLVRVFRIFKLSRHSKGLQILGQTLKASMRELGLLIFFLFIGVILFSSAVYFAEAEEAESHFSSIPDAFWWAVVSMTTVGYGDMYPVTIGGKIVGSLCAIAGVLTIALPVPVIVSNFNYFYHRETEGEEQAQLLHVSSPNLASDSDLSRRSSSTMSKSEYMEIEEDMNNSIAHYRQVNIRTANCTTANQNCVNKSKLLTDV
human Kv1.1 potassium ion channel (human), sequence (Q09470 whole entry): as above
T5 sequence (P17658 whole entry): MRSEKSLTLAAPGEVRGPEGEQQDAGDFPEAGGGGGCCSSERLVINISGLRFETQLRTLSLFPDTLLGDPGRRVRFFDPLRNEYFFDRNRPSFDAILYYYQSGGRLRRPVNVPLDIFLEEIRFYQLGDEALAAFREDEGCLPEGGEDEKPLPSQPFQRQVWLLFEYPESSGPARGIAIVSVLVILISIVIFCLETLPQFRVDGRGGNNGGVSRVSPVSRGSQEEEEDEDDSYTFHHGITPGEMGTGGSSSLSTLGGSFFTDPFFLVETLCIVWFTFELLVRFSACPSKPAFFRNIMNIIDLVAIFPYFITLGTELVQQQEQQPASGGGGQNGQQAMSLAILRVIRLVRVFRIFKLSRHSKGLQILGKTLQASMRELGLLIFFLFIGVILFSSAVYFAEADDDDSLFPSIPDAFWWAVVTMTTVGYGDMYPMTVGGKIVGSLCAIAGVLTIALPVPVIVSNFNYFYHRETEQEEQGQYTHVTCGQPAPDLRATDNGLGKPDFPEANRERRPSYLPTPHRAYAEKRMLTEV
human Kv1.6 potassium ion channel (human), sequence (P17658 whole entry): as above
T1 sequence (P22001 whole entry): as the sequence (P22001 whole entry) above
T4 sequence (P22001 whole entry): as above
human Kv1.3 voltage-gated K+ channel (potassium voltage-gated channel subfamily A member 3) (human), sequence (P22001 whole entry): as above

**Q.** With Moka1 (peptide) as the compound, how does the Potency IC50 (nM) Kv1.1 [1] read?
**A.** The Potency IC50 (nM) Kv1.1 was greater than 3000 nM.

**Q.** What about the Selectivity Kv1.1/Kv1.3 [1] of the same compound?
**A.** The Selectivity Kv1.1/Kv1.3 was greater than 300.

**Q.** What about the Potency IC50 (nM) Kv1.2 [2] of the same compound?
**A.** Its Potency IC50 (nM) Kv1.2 is 275 nM.

**Q.** What about the Selectivity Kv1.2/Kv1.3 [2] of the same compound?
**A.** The Selectivity Kv1.2/Kv1.3 was 31.

**Q.** What about the Potency IC50 (nM) Kv1.3 [3] of the same compound?
**A.** Its Potency IC50 (nM) Kv1.3 is 9 nM.

**Q.** And the Potency IC50 (nM) Kv1.6 [4]?
**A.** Its Potency IC50 (nM) Kv1.6 is greater than 3000 nM.

**Q.** What about the Selectivity Kv1.6/Kv1.3 [4] of the same compound?
**A.** Its Selectivity Kv1.6/Kv1.3 is greater than 300.

**Q.** Which results are given for `CCCC[C@H](NC(=O)[C@@H]1CCCN1)C(=O)N[C@@H](CCC(=O)O)C(=O)N[C@@H](CCCC)C(=O)N[C@@H](CCCNC(=N)N)C(=O)N[C@H]1CSSC[C@@H]2NC(=O)[C@H](CCCCN)NC(=O)CNC(=O)[C@H](Cc3ccccc3)NC(=O)[C@H]([C@@H](C)CC)NC(=O)[C@H](CO)NC(=O)CNC(=O)[C@H]([C@@H](C)CC)NC(=O)[C@H](C)NC(=O)[C@H](C)NC(=O)[C@H](CC(C)C)NC(=O)[C@@H]3CSSC[C@@H](C(=O)N[C@@H](Cc4ccc(O)cc4)C(=O)N4CCC[C@H]4C(=O)N[C@@H](CCCNC(=N)N)C(=O)O)NC(=O)[C@H](CCCCN)NC(=O)[C@H](CSSC[C@H](NC(=O)[C@H](CCC(=O)O)NC(=O)[C@H](C(C)C)NC(=O)[C@H](CO)NC(=O)[C@H](C)NC(=O)[C@H](CCN)NC1=O)C(=O)N[C@@H](CCCCN)C(=O)N[C@@H](CCC(N)=O)C(=O)N[C@@H](CCCCN)C(=O)N3)NC(=O)[C@H](CCCCN)NC(=O)[C@H](CCCCN)NC(=O)[C@H](CC(N)=O)NC(=O)[C@H](CCCC)NC2=O` [Cpd No. 1] (H-P[Nle]E[Nle]RC[Dab]ASVECKQKCLAAIGSIFGKC[Nle]NKKCKCYPR-OH; disulfide 6-27, 12-32, 16-34)?
**A.** IC50 [5]: 0.12 nM; AUC(0-inf) [6]: 0.152 µM·h; Cmax [6]: 90.8 nM; half-life [6]: 102 min; IC50 [7]: > 3 µM; Selectivity ratio Kv1.1/Kv1.3 [7]: >100000; IC50 [8]: 480 nM; Selectivity ratio Kv1.2/Kv1.3 [8]: 17000; IC50 [9]: 0.028 nM; IC50 [10]: > 3 µM; Selectivity ratio Kv1.6/Kv1.3 [10]: >100000

**Q.** With ShK (peptide) as the compound, how does the Potency IC50 (nM) Kv1.2 [2] read?
**A.** Its Potency IC50 (nM) Kv1.2 is 11 nM.

**Q.** What about the Potency IC50 (nM) Kv1.3 [3] of the same compound?
**A.** Its Potency IC50 (nM) Kv1.3 is 0.017 nM.

**Q.** What about the Potency IC50 (nM) Kv1.6 [4] of the same compound?
**A.** Its Potency IC50 (nM) Kv1.6 is 0.19 nM.

**Q.** With Vm24 (peptide) as the compound, how does the Potency IC50 (nM) Kv1.1 [1] read?
**A.** Its Potency IC50 (nM) Kv1.1 is 0.097 nM.

**Q.** What about the Selectivity Kv1.1/Kv1.3 [1] of the same compound?
**A.** The Selectivity Kv1.1/Kv1.3 was 0.65.

**Q.** And the Potency IC50 (nM) Kv1.2 [2]?
**A.** The Potency IC50 (nM) Kv1.2 was 4.7 nM.

**Q.** And the Selectivity Kv1.2/Kv1.3 [2]?
**A.** Its Selectivity Kv1.2/Kv1.3 is 31.

**Q.** What about the Potency IC50 (nM) Kv1.3 [3] of the same compound?
**A.** Its Potency IC50 (nM) Kv1.3 is 0.15 nM.

**Q.** And the Potency IC50 (nM) Kv1.6 [4]?
**A.** Its Potency IC50 (nM) Kv1.6 is 21 nM.

**Q.** What about the Selectivity Kv1.6/Kv1.3 [4] of the same compound?
**A.** The Selectivity Kv1.6/Kv1.3 was 139.

**Q.** With “ShK-186: H-[phosphotyrosyl][8-Amino-3,6-dioxaoctanoyl]…-NH2 (peptide)” as the compound, how does the IC50 of IL-2 release, anti-CD3 stimulated human PBMCs (Example 5b) [11] read?
**A.** Its IC50 of IL-2 release, anti-CD3 stimulated human PBMCs (Example 5b) is 0.05 nM.

**Q.** With `CCCC[C@H](NC(=O)[C@@H]1CCCN1)C(=O)N[C@@H](CCC(=O)O)C(=O)N[C@@H](CCCC)C(=O)N[C@@H](CCCNC(=N)N)C(=O)N[C@H]1CSSC[C@@H]2NC(=O)[C@H](CCCCN)NC(=O)CNC(=O)[C@H](Cc3ccccc3)NC(=O)[C@H]([C@@H](C)CC)NC(=O)[C@H](CO)NC(=O)CNC(=O)[C@H]([C@@H](C)CC)NC(=O)[C@H](C)NC(=O)[C@H](C)NC(=O)[C@H](CC(C)C)NC(=O)[C@@H]3CSSC[C@@H](C(=O)N[C@@H](Cc4ccc(O)cc4)C(=O)N4CCC[C@H]4C(=O)N[C@@H](CCCNC(=N)N)C(N)=O)NC(=O)[C@H](CCCCN)NC(=O)[C@H](CSSC[C@H](NC(=O)[C@H](CCC(=O)O)NC(=O)[C@H](C(C)C)NC(=O)[C@H](CO)NC(=O)[C@H](C)NC(=O)[C@H](CO)NC1=O)C(=O)N[C@@H](CCCCN)C(=O)N[C@@H](CCC(N)=O)C(=O)N[C@@H](CCCCN)C(=O)N3)NC(=O)[C@H](CCCCN)NC(=O)[C@H](CCCCN)NC(=O)[C@H](CC(N)=O)NC(=O)[C@H](CCCC)NC2=O` [compound 13] (H-P[Nle]E[Nle]RCSASVECKQKCLAAIGSIFGKC[Nle]NKKCKCYPR-NH2; disulfide 6-27, 12-32, 16-34) as the compound, how does the AUC(0-inf) [12] read?
**A.** The AUC(0-inf) was 0.0268 µM·h.

**Q.** What about the Cmax [12] of the same compound?
**A.** The Cmax was 16.5 nM.

**Q.** What about the half-life [12] of the same compound?
**A.** Its half-life is 102 min.

**Q.** And the “Selectivity ratio Kv1.1/Kv1.3” value [7]?
**A.** The value was greater than 16200.

**Q.** What about the “Selectivity ratio Kv1.2/Kv1.3” value [8] of the same compound?
**A.** Its value is 1689.

**Q.** What about the “Selectivity ratio Kv1.6/Kv1.3” value [10] of the same compound?
**A.** Its value is greater than 16200.

**Q.** What about the IC50 [13] of the same compound?
**A.** Its IC50 is 0.34 nM.

**Q.** With `CCCC[C@H](NC(=O)[C@@H]1CCCN1)C(=O)N[C@@H](CCC(=O)O)C(=O)N[C@@H](CCCC)C(=O)N[C@@H](CCCNC(=N)N)C(=O)N[C@H]1CSSC[C@@H]2NC(=O)[C@H](CCCCN)NC(=O)CNC(=O)[C@H](Cc3ccccc3)NC(=O)[C@H]([C@@H](C)CC)NC(=O)[C@H](CO)NC(=O)CNC(=O)[C@H]([C@@H](C)CC)NC(=O)[C@H](C)NC(=O)[C@H](C)NC(=O)[C@H](CC(C)C)NC(=O)[C@@H]3CSSC[C@@H](C(=O)N[C@@H](Cc4ccc(O)cc4)C(=O)N4CCC[C@H]4C(=O)N[C@@H](CCCNC(=N)N)C(=O)O)NC(=O)[C@H](CCCCN)NC(=O)[C@H](CSSC[C@H](NC(=O)[C@H](CCC(=O)O)NC(=O)[C@H](C(C)C)NC(=O)[C@H](CO)NC(=O)[C@H](C)NC(=O)[C@H](CNC(=N)N)NC1=O)C(=O)N[C@@H](CCCCN)C(=O)N[C@@H](CCC(N)=O)C(=O)N[C@@H](CCCCN)C(=O)N3)NC(=O)[C@H](CCCCN)NC(=O)[C@H](CCCCN)NC(=O)[C@H](CC(N)=O)NC(=O)[C@H](CCCC)NC2=O` [Cpd No. 3] (H-P[Nle]E[Nle]RC[Agp]ASVECKQKCLAAIGSIFGKC[Nle]NKKCKCYPR-OH; disulfide 6-27, 12-32, 16-34) as the compound, how does the IC50 [5] read?
**A.** Its IC50 is 0.13 nM.

**Q.** What about the IC50 [7] of the same compound?
**A.** The IC50 was greater than 3 µM.

**Q.** What about the “Selectivity ratio Kv1.1/Kv1.3” value [7] of the same compound?
**A.** The value was greater than 46000.

**Q.** What about the IC50 [8] of the same compound?
**A.** Its IC50 is 380 nM.

**Q.** What about the “Selectivity ratio Kv1.2/Kv1.3” value [8] of the same compound?
**A.** Its value is 6000.

**Q.** And the IC50 [9]?
**A.** The IC50 was 0.064 nM.

**Q.** And the IC50 [10]?
**A.** The IC50 was greater than 3 µM.

**Q.** And the “Selectivity ratio Kv1.6/Kv1.3” value [10]?
**A.** Its value is greater than 46000.
